Laboratory results published in patent publication US12357603B2, “Acyl sulfonamides for treating cancer” (Bayer Aktiengesellschaft, priority 2019, dated 2025).
pIC50: −log10 of the molar value. Read-outs that look alike come from different tables or passages of the source.

Columns and labels:
[1] = system: ZR-75-1 cells; test: Proliferation assay ZR-75-1 (Alamar Blue, 144 h); format: cell-based; conditions: arithmetic mean, read-out: ZR75-1 proliferation assay, EC50 [M] (arithmetic mean)
Procedure, shortened: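 Cells seeded at 3000/well in RPMI 1640 with 2.5% FBS and treated 24 h later across 2.0×10E-5 to 2.0×10E-9 M (9 dilutions, 0.2% DMSO, triplicate). After 144 h at 37 °C, 5% CO2, viability read by Alamar Blue fluorescence at 590 nm following 2 h reagent incubation.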

[2] = system: MDA-MB-436 cells; test: Proliferation assay MDA-MB-436, negative control cell line (Alamar Blue, 144 h); format: cell-based; conditions: arithmetic mean
Procedure, shortened: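 MDA-MB-436 cells (3000/well, DMEM/Ham's F12 with 2.5% FBS) treated 24 h after plating with compounds at 2.0×10E-5 to 2.0×10E-9 M (9 dilutions, 0.2% DMSO), triplicates, 144 h at 37 °C, 5% CO2. Viability by Alamar Blue, 2 h, fluorescence at 590 nm.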

[3] = target: Recombinant human GST-tagged Kat6b protein (431-end); test: Kat6b activity assay (TR-FRET, acetylation of biotinylated Histone-H4-derived peptide); format: biochemical; conditions: 30 mins at 22° C., read-out: KAT6B activity assay IC50 [mol/l] (arithmetic mean)
Description: Kat6b inhibitory activities of the compounds described in the present invention were quantified using a Fluorescence Resonance Energy Transfer (TR-FRET) assay which measures acetylation of a synthetic, biotinylated Histone-H4-derived peptide by the enzyme.
In this case 50 nl DMSO were used instead of compounds. […] IC50 values were determined by regression analysis based on a 4 parameter equation (minimum, maximum, ICM, Hill; Y=Max+(Min−Max)/(1+(X/ICso) Hill) using the Screener Software (Genedata).

[4] = target: Recombinant human His-tagged Kat6a protein (amino acids 194-810) (Homo sapiens (Human), UniProt Q92794); test: Kat6a activity assay (TR-FRET, acetylation of biotinylated Histone-H4-derived peptide); format: biochemical; conditions: 60 mins at 22° C., read-out: KAT6A-DPF/HAT domain IC50 [mol/l] (arithmetic mean)
Procedure, shortened: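 Sf9-expressed human His-Kat6a (aa 194-810) incubated 60 min at 22 °C with compounds (0.01-20 μM) in Tris pH 8 buffer containing 220 nM biotinylated H4 peptide (aa 1-24) and 600 nM acetyl-CoA. Acetyl-K8 detected by TR-FRET (665/620 nm ratio); IC50 by four-parameter fit versus DMSO controls.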

[5] = system: ESR1 transcription (luciferase signal in MVLN cells); test: Repression of ESR1 transcription, luciferase reporter in MVLN cells; format: cell-based; conditions: inhibition of luciferase signal in MVLN cells, arithmetic mean
Procedure, shortened: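 MVLN cells (constitutive ER, stably carrying a Vitellogenin A2 hormone-responsive element–luciferase reporter) treated in duplicate; luciferase read after 24 h. Cell density checked by Alamar Blue fluorescence (530/590 nm) after 2 h to exclude cell-loss effects.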

[6] = Homo sapiens, MDA-MB-436, 144 h

Chain of Recombinant human His-tagged Kat6a protein (amino acids 194-810) (Q92794 194-810): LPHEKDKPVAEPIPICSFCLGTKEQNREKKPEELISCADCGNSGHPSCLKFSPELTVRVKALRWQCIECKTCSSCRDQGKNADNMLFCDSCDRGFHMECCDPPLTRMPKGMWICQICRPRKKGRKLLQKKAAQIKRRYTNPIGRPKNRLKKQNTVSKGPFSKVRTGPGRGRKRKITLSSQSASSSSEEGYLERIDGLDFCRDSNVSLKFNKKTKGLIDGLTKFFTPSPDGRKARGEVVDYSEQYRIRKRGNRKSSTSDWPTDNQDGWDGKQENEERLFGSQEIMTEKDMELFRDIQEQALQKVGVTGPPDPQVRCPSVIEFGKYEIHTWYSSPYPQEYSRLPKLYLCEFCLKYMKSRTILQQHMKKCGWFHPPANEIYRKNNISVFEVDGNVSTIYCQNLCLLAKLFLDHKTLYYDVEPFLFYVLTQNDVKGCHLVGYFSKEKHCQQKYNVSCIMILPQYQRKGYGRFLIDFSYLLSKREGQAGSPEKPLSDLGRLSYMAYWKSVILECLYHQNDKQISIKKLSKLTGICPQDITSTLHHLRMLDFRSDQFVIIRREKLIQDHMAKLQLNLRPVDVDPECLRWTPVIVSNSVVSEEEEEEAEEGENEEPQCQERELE

Row | SMILES | EC50 [2, 6] [nM] | pIC50 [3] | pIC50 [4] | IC50 ([5]; Homo sapiens, MVLN) [nM] | EC50 [2] [nM] | IC50 [5] [nM] | EC50 ([1]; Homo sapiens, ZR-75-1, 144 h) [M] | EC50 [1] [M]
1 | CN(C)c1ccc2cc(C(=O)NS(=O)(=O)C3CCOCC3)oc2c1 [Example 28, 6-(Dimethylamino)-N-(oxane-4-sulfonyl)-1-benzofuran-2-carboxamide] | > 20000 | 5.57 | 5.26 | > 20000 |  |  | 4.73e-06 | 
2 | Cc1cc(N(C)C)cc2oc(C(=O)NS(=O)(=O)c3ccccc3-c3ccccc3)cc12 [Example 35, N-([1,1′-biphenyl]-2-sulfonyl)-6-(dimethylamino)-4-methyl-1-benzofuran-2-carboxamide] | > 20000 | 6.18 | 6.34 | 14900 |  |  | 6.03e-06 | 
3 | CCN(CC)c1ccc2cc(C(=O)NS(=O)(=O)c3ccccc3-c3ccccc3)oc2c1 [Example 38, N-([1,1′-Biphenyl]-2-sulfonyl)-6-(diethylamino)-1-benzofuran-2-carboxamide] | > 20000 | 5.72 | 6.01 | 4990 |  |  | 1.45e-05 | 
4 | CN(CC1CC1)c1ccc2cc(C(=O)NS(=O)(=O)c3ccccc3-c3ccccc3)oc2c1 [Example 40, N-([1,1′-Biphenyl]-2-sulfonyl)-6-[(cyclopropylmethyl)(methyl)amino]-1-benzofuran-2-carboxamide] | > 20000 | 5.85 | 5.94 | > 20000 |  |  | > 2e-05 | 
5 | CCCCN(CCCC)c1ccc2cc(C(=O)NS(=O)(=O)c3ccccc3-c3ccccc3)oc2c1 [Example 41, N-([1,1′-Biphenyl]-2-sulfonyl)-6-(dibutylamino)-1-benzofuran-2-carboxamide] | 18500 | 5.59 | 5.64 | 14900 |  |  | 8.3e-06 | 
6 | Nc1ccc2cc(C(=O)NS(=O)(=O)c3ccccc3-c3ccccc3)oc2c1 [Example 42, 6-Amino-N-([1,1′-biphenyl]-2-sulfonyl)-1-benzofuran-2-carboxamide] | > 20000 | 5.44 | 5.97 | > 20000 |  |  | > 2e-05 | 
7 | CC(=O)Nc1ccc2cc(C(=O)NS(=O)(=O)c3ccccc3-c3ccccc3)oc2c1 [Example 43, 6-Acetamido-N-([1,1′-biphenyl]-2-sulfonyl)-1-benzofuran-2-carboxamide] | > 20000 | 4.99 | 5.29 | > 20000 |  |  | > 2e-05 | 
8 | O=C(NS(=O)(=O)c1ccccc1-c1ccccc1)c1cc2ccc(N3CCCC3)cc2o1 [Example 45, N-([1,1′-Biphenyl]-2-sulfonyl)-6-(pyrrolidin-1-yl)-1-benzofuran-2-carboxamide] | > 20000 | 5.83 | 5.44 | 6450 |  |  | 1.19e-05 | 
9 | O=C(NS(=O)(=O)c1ccccc1-c1ccccc1)c1cc2ccc(N3CCCCC3)cc2o1 [Example 47, N-([1,1′-Biphenyl]-2-sulfonyl)-6-(piperidin-1-yl)-1-benzofuran-2-carboxamide] | > 20000 | 4.80 | 5.11 | > 20000 |  |  | > 2e-05 | 
10 | CN(C)c1ccc2cc(C(=O)NS(=O)(=O)c3ccccc3-c3cccc(Cl)c3)sc2c1 [Example 49, N-(3′-Chloro[1,1′-biphenyl]-2-sulfonyl)-6-(dimethylamino)-1-benzothiophene-2-carboxamide] | > 20000 | 6.28 | 6.51 | 2470 |  |  | 5.17e-06 | 
11 | CN(C)c1ccc2cc(C(=O)NS(=O)(=O)c3ccccc3OC(C)(C)C)oc2c1 [Example 68, N-(2-tert-butoxybenzene-1-sulfonyl)-6-(dimethylamino)-1-benzofuran-2-carboxamide] | > 20000 | 7.07 | 7.16 | 51 |  |  | 8.44e-08 | 

Second part, led by results:

Row | EC50 [2, 6] [nM] | pIC50 [3] | pIC50 [4] | IC50 ([5]; Homo sapiens, MVLN) [nM] | EC50 [2] [nM] | IC50 [5] [nM] | SMILES | EC50 ([1]; Homo sapiens, ZR-75-1, 144 h) [M] | EC50 [1] [M]
12 | 18000 | 7.30 | 7.51 | 139 |  |  | CCOc1cccc(-c2cccc(Cl)c2)c1S(=O)(=O)NC(=O)c1cc2ccc(N(C)C)cc2o1 [Example 25, N-(3′-Chloro-3-ethoxy[1,1′-biphenyl]-2-sulfonyl)-6-(dimethylamino)-1-benzofuran-2-carboxamide] | 1.5e-07 | 
13 | > 20000 | 6.11 | 6.39 | 899 |  |  | Cc1ccc(S(=O)(=O)NC(=O)c2cc3ccc(N(C)C)cc3o2)cc1 [Example 26, 6-(Dimethylamino)-N-(4-methylbenzene-1-sulfonyl)-1-benzofuran-2-carboxamide] | 3.89e-07 | 
14 | > 20000 | 5.23 | 5.20 | > 20000 |  |  | CN(C)c1ccc2cc(C(=O)NS(=O)(=O)c3cc(C#N)ccn3)oc2c1 [Example 29, N-(4-Cyanopyridine-2-sulfonyl)-6-(dimethylamino)-1-benzofuran-2-carboxamide] | 1.88e-05 | 
15 | > 20000 | 6.77 | 6.64 | 4030 |  |  | CN(C)c1ccc2cc(C(=O)NS(=O)(=O)c3ccccc3C(=O)O)oc2c1 [Example 36, 2-{[6-(Dimethylamino)-1-benzofuran-2-carbonyl]sulfamoyl}benzoic acid] | 1.04e-05 | 
16 | > 20000 | 5.01 | 4.79 | > 20000 |  |  | CCS(=O)(=O)NC(=O)c1cc2ccc(N(C)C)cc2o1 [Example 61, 6-(Dimethylamino)-N-(ethanesulfonyl)-1-benzofuran-2-carboxamide] | 1.77e-05 | 
17 | > 20000 | < 4.70 | 4.78 | > 20000 |  |  | CN(C)c1ccc2cc(C(=O)NS(C)(=O)=O)oc2c1 [Example 63, 6-(Dimethylamino)-N-(methanesulfonyl)-1-benzofuran-2-carboxamide] | > 2e-05 | 
18 | > 20000 | 7.46 | 7.55 | 20.4 |  |  | CN(C)c1ccc2cc(C(=O)NS(=O)(=O)c3ccccc3OC3CC3)oc2c1 [Example 65, N-[2-(Cyclopropyloxy)benzene-1-sulfonyl]-6-(dimethylamino)-1-benzofuran-2-carboxamide] | 4.44e-08 | 
19 |  | 7.23 | 7.31 |  | > 20000 | 31 | CC(C)Oc1ccccc1S(=O)(=O)NC(=O)c1cc2ccc(N(C)C)cc2o1 [Example 66, 6-(Dimethylamino)-N-{2-[(propan-2-yl)oxy]benzene-1-sulfonyl}-1-benzofuran-2-carboxamide] |  | 5.47e-08
20 | > 20000 | 6.93 | 7.37 | 40.2 |  |  | CCOc1ccc(C)cc1S(=O)(=O)NC(=O)c1cc2ccc(N(C)C)cc2o1 [Example 67, 6-(Dimethylamino)-N-(2-ethoxy-5-methylbenzene-1-sulfonyl)-1-benzofuran-2-carboxamide] | 4.08e-08 | 
21 | > 20000 | 6.96 | 6.91 | 71.3 |  |  | COc1ccc2cccnc2c1S(=O)(=O)NC(=O)c1cc2ccc(N(C)C)cc2o1 [Example 70, 6-(Dimethylamino)-N-(7-methoxyquinoline-8-sulfonyl)-1-benzofuran-2-carboxamide] | 1.63e-07 | 
22 | > 20000 | 6.88 | 7.14 | 71.9 |  |  | CN(C)c1ccc2cc(C(=O)NS(=O)(=O)c3ccccc3OCC3CC3)oc2c1 [Example 71, N-[2-(Cyclopropylmethoxy)benzene-1-sulfonyl]-6-(dimethylamino)-1-benzofuran-2-carboxamide] | 1.92e-07 | 
23 | > 20000 | 6.72 | 7.01 | 76.5 |  |  | CN(C)c1ccc2cc(C(=O)NS(=O)(=O)c3ccccc3OCCF)oc2c1 [Example 72, 6-(Dimethylamino)-N-[2-(2-fluoroethoxy)benzene-1-sulfonyl]-1-benzofuran-2-carboxamide] | 1.31e-07 | 
24 | > 20000 | 7.11 | 6.93 | 99.4 |  |  | CN(C)c1ccc2cc(C(=O)NS(=O)(=O)c3cccc4cccnc34)oc2c1 [Example 73, 6-(Dimethylamino)-N-(quinoline-8-sulfonyl)-1-benzofuran-2-carboxamide] | 2.48e-07 | 
